# Laboratory results published in the kinase profiling compilation of Christmann-Franck et al. (2016).
# Values joined by “and” are separate entries in the source; they are usually repeats but may differ in a detail not shown here. Equal entries are not always repeated.
# How the values were obtained:
# Experiment in all cases: radiometric filter-binding kinase assay, Kinaseprofiler
# BMX (human) = BMX (human) (UniProt P51813); settings: ATP 45 µM
# CDC42BPB (human) = CDC42BPB (human) (UniProt Q9Y5S2); settings: ATP 10 µM
# EPHA5 (human) = EPHA5 (human) (UniProt P54756); settings: ATP 10 µM
# CSF1R (human) = CSF1R (human) (UniProt P07333); settings: ATP 200 µM
# HCK (human) = HCK (human) (UniProt P08631)
# SGK3 (human) = SGK3 (human) (UniProt Q96BR1); settings: ATP 155 µM
# FGFR3 (human) = FGFR3 (human) (UniProt P22607); settings: ATP 15 µM
# PLK3 (human) = PLK3 (human) (UniProt Q9H4B4); settings: ATP 70 µM
# KIT (human) = KIT (human) (UniProt P10721); settings: ATP 200 µM
# PRKG1 (human) = PRKG1 (human) (UniProt Q13976); settings: ATP 90 µM
# SIK1 (human) = SIK1 (human) (UniProt P57059); settings: ATP 45 µM
# MAPKAPK3 (human) = MAPKAPK3 (human) (UniProt Q16644); settings: ATP 90 µM
# PDPK1 (human) = PDPK1 (human) (UniProt O15530); settings: ATP 10 µM
# MAP3K9 (human) = MAP3K9 (human) (UniProt P80192); settings: ATP 45 µM
# MAP3K7 (human) = MAP3K7 (human) (UniProt O43318); settings: ATP 45 µM
# PTK6 (human) = PTK6 (human) (UniProt Q13882); settings: ATP 15 µM
# CDK9 CCNT1 (human) = CDK9 CCNT1 (human) (UniProt P50750+O60563); settings: ATP 45 µM
# SRPK3 (human) = SRPK3 (human) (UniProt Q9UPE1); settings: ATP 15 µM
# ROCK1 (human) = ROCK1 (human) (UniProt Q13464); settings: ATP 70 µM
# CDK3 CCNE1 (human) = CDK3 CCNE1 (human) (UniProt Q00526+P24864); settings: ATP 200 µM
# EPHA1 (human) = EPHA1 (human) (UniProt P21709); settings: ATP 45 µM
# CAMK2B (human) = CAMK2B (human) (UniProt Q13554); settings: ATP 15 µM
# NEK7 (human) = NEK7 (human) (UniProt Q8TDX7); settings: ATP 45 µM
# CHUK (human) = CHUK (human) (UniProt O15111); settings: ATP 10 µM
# SRPK1 (human) = SRPK1 (human) (UniProt Q96SB4); settings: ATP 10 µM
# [1] = test system: IRAK4 (human), Q9NWZ3 [A81V]; settings: ATP 200 µM
# IGF1R (human) = IGF1R (human) (UniProt P08069)
# SYK (human) = SYK (human) (UniProt P43405); settings: ATP 15 µM
# PIM2 (human) = PIM2 (human) (UniProt Q9P1W9); settings: ATP 15 µM
# MKNK2 (human) = MKNK2 (human) (UniProt Q9HBH9); settings: ATP 120 µM
# PRKCA (human) = PRKCA (human) (UniProt P17252); settings: ATP 45 µM
# CDK5 CDK5R1 p25 (human) = CDK5 CDK5R1 p25 (human) (UniProt Q00535+Q15078); settings: ATP 15 µM
# Chain of PRKG1 (human) (Q13976 whole entry, looked up): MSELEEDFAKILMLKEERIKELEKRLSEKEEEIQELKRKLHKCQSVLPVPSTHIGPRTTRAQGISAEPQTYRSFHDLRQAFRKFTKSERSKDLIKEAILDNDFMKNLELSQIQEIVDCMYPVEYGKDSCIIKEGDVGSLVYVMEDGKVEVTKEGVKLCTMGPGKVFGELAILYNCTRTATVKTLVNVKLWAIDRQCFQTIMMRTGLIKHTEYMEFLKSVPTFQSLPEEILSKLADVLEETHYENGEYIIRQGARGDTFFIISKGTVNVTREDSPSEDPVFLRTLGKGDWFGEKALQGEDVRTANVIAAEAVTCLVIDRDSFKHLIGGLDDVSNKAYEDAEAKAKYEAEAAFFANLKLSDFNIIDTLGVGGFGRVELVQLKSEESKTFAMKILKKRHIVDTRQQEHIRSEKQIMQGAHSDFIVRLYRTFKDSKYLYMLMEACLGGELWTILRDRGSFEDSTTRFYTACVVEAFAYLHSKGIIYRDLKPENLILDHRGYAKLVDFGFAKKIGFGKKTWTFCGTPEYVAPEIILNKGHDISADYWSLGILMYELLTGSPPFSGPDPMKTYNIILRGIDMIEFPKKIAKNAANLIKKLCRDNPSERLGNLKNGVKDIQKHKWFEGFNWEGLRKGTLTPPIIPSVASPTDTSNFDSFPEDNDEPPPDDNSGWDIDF
# Chain of IGF1R (human) (P08069 whole entry, looked up): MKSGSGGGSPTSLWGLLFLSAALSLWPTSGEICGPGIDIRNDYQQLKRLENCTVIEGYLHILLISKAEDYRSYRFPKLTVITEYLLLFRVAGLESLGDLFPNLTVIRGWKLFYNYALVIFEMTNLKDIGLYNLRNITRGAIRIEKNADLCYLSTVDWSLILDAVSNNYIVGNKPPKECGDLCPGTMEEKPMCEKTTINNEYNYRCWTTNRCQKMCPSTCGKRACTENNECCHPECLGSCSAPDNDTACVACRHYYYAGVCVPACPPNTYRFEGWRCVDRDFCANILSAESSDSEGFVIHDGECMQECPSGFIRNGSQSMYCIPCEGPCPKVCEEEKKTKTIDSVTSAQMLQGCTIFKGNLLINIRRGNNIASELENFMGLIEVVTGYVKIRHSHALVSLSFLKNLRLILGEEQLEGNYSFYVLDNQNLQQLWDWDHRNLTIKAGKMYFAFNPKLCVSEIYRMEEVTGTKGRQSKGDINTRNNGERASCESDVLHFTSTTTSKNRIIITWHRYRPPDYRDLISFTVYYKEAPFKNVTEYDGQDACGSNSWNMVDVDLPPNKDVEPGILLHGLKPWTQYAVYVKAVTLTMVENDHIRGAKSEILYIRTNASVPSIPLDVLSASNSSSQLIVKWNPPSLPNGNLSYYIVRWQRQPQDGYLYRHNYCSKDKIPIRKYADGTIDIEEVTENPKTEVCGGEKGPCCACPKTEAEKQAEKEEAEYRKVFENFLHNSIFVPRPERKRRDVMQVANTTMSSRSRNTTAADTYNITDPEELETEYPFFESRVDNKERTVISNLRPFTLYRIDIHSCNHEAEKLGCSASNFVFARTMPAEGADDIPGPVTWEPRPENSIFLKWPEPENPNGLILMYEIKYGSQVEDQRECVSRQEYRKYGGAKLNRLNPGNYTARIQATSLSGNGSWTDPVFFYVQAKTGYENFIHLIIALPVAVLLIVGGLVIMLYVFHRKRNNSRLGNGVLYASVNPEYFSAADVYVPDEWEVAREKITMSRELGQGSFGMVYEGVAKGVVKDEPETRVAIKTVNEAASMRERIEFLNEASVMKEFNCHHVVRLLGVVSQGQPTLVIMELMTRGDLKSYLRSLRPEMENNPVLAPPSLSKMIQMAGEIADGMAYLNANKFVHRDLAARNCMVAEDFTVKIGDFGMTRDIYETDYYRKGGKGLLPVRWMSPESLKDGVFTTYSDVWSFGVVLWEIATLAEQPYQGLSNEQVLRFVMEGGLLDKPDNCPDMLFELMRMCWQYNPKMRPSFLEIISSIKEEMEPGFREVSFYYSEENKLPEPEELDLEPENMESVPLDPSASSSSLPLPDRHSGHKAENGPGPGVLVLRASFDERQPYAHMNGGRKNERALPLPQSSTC
# Chain of HCK (human) (P08631 whole entry, looked up): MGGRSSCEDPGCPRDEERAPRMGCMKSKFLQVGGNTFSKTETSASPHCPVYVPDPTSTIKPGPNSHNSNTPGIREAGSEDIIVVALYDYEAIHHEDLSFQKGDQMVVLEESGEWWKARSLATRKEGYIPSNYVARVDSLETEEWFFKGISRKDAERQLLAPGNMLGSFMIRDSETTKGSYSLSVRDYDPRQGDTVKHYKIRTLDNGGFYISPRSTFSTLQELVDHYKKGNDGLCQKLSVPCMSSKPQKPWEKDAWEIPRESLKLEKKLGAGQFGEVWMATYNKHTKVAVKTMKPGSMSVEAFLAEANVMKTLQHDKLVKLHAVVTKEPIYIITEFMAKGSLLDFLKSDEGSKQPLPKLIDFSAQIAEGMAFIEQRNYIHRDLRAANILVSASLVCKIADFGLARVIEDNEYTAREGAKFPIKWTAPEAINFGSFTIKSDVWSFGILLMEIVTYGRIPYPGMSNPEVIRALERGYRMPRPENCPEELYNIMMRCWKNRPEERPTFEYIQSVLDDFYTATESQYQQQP
# Chain of NEK7 (human) (Q8TDX7 whole entry, looked up): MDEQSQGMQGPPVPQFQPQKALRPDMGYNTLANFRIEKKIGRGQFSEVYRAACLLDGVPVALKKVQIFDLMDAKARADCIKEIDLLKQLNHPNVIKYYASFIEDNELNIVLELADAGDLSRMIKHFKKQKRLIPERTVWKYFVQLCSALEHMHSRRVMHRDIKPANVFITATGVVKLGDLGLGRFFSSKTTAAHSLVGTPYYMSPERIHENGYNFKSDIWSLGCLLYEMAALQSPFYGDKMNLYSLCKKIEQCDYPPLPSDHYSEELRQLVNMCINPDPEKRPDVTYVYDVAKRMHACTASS
# Chain of CHUK (human) (O15111 whole entry, looked up): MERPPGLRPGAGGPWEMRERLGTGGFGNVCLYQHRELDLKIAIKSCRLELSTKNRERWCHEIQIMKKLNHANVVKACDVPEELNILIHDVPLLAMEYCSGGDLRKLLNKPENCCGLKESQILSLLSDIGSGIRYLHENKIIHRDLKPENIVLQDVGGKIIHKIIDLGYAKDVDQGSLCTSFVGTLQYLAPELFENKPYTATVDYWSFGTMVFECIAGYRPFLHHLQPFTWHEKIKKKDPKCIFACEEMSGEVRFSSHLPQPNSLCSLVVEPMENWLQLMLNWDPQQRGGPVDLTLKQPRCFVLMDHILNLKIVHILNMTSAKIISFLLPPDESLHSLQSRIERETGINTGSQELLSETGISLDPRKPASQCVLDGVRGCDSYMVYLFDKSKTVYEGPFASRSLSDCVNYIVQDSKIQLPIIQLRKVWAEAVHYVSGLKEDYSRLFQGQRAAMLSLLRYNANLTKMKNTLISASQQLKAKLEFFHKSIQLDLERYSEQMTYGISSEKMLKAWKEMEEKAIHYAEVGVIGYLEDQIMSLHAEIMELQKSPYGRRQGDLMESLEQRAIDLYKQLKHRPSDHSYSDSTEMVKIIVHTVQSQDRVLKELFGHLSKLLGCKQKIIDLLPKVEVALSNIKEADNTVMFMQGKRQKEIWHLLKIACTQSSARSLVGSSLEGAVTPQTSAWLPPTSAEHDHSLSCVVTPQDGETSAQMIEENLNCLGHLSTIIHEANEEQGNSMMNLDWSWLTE
# Chain of CSF1R (human) (P07333 whole entry, looked up): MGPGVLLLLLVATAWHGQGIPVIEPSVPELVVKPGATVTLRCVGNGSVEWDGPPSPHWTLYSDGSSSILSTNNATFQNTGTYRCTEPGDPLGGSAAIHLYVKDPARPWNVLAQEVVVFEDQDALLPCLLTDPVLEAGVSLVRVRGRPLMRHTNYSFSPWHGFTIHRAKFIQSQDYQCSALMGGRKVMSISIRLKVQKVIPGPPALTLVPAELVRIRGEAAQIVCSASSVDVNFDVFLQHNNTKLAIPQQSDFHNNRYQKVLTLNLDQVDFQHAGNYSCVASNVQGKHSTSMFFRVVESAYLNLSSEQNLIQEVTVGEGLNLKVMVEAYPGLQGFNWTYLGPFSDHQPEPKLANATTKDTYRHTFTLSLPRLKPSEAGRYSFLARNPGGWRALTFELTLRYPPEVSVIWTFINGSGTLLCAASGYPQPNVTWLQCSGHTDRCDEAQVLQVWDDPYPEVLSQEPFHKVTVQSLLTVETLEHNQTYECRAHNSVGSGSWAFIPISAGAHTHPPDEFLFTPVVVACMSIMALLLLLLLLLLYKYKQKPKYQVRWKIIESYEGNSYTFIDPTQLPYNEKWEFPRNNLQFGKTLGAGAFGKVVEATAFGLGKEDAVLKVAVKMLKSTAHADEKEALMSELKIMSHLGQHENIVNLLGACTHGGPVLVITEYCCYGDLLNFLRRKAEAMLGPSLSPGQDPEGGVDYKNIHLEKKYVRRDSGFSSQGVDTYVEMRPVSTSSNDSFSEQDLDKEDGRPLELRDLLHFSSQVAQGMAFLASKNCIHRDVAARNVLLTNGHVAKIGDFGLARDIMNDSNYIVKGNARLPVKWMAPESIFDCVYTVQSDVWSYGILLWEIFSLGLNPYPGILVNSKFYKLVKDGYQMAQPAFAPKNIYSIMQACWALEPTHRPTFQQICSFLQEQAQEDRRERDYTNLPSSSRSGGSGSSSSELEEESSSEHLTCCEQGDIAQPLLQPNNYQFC
# Chain of PIM2 (human) (Q9P1W9 whole entry, looked up): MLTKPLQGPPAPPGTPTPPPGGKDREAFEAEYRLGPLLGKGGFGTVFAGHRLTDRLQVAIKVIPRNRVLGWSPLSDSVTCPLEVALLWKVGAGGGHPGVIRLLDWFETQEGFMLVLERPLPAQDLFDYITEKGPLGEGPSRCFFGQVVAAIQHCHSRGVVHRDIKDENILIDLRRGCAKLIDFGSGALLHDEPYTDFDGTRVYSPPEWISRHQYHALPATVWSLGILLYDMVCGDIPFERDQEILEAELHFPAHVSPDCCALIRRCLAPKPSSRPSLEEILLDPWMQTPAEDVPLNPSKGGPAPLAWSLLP
smiles,measurement,setting,value
O=C1Nc2ccccc2/C1=C1\Nc2ccccc2\C1=N/O,residual activity,BMX (human); compound 1.0 µM,21%
same,residual activity,BMX (human); compound 10.0 µM,4%
same,residual activity,CDC42BPB (human); compound 1.0 µM,106%
same,residual activity,CDC42BPB (human); compound 10.0 µM,103%
same,residual activity,EPHA5 (human); compound 1.0 µM,59%
same,residual activity,EPHA5 (human); compound 10.0 µM,9%
same,residual activity,CSF1R (human); compound 1.0 µM,15%
same,residual activity,CSF1R (human); compound 10.0 µM,8%
same,residual activity,"HCK (human); compound 1.0 µM, ATP 45 µM",8%
same,residual activity,"HCK (human); compound 1.0 µM, ATP 70 µM",15%
same,residual activity,"HCK (human); compound 10.0 µM, ATP 45 µM",1%
same,residual activity,"HCK (human); compound 10.0 µM, ATP 70 µM",5%
same,residual activity,SGK3 (human); compound 1.0 µM,89%
same,residual activity,SGK3 (human); compound 10.0 µM,56%
same,residual activity,FGFR3 (human); compound 1.0 µM,20%
same,residual activity,FGFR3 (human); compound 10.0 µM,2%
same,residual activity,PLK3 (human); compound 1.0 µM,96%
same,residual activity,PLK3 (human); compound 10.0 µM,91%
same,residual activity,KIT (human); compound 1.0 µM,20%
same,residual activity,KIT (human); compound 10.0 µM,2%
same,residual activity,PRKG1 (human); compound 1.0 µM,79% and 77%
same,residual activity,PRKG1 (human); compound 10.0 µM,45% and 67%
same,residual activity,SIK1 (human); compound 1.0 µM,43%
same,residual activity,SIK1 (human); compound 10.0 µM,8%
same,residual activity,MAPKAPK3 (human); compound 1.0 µM,117%
same,residual activity,MAPKAPK3 (human); compound 10.0 µM,88%
same,residual activity,PDPK1 (human); compound 1.0 µM,53%
same,residual activity,PDPK1 (human); compound 10.0 µM,9%
same,residual activity,MAP3K9 (human); compound 1.0 µM,6%
same,residual activity,MAP3K9 (human); compound 10.0 µM,1%
same,residual activity,MAP3K7 (human); compound 1.0 µM,64%
same,residual activity,MAP3K7 (human); compound 10.0 µM,71%
same,residual activity,PTK6 (human); compound 1.0 µM,91%
same,residual activity,PTK6 (human); compound 10.0 µM,23%
same,residual activity,CDK9 CCNT1 (human); compound 1.0 µM,26%
same,residual activity,CDK9 CCNT1 (human); compound 10.0 µM,11%
same,residual activity,SRPK3 (human); compound 1.0 µM,85%
same,residual activity,SRPK3 (human); compound 10.0 µM,46%
same,residual activity,ROCK1 (human); compound 1.0 µM,108%
same,residual activity,ROCK1 (human); compound 10.0 µM,92%
same,residual activity,CDK3 CCNE1 (human); compound 1.0 µM,5%
same,residual activity,CDK3 CCNE1 (human); compound 10.0 µM,0%
same,residual activity,EPHA1 (human); compound 1.0 µM,55%
same,residual activity,EPHA1 (human); compound 10.0 µM,61%
same,residual activity,CAMK2B (human); compound 1.0 µM,33%
same,residual activity,CAMK2B (human); compound 10.0 µM,11%
same,residual activity,NEK7 (human); compound 1.0 µM,106%
same,residual activity,NEK7 (human); compound 10.0 µM,102%
same,residual activity,CHUK (human); compound 1.0 µM,76%
same,residual activity,CHUK (human); compound 10.0 µM,57%
same,residual activity,SRPK1 (human); compound 1.0 µM,90%
same,residual activity,SRPK1 (human); compound 10.0 µM,66%
same,residual activity,[1]; compound 1.0 µM,41%
same,residual activity,[1]; compound 10.0 µM,6%
same,residual activity,"IGF1R (human); compound 1.0 µM, ATP 45 µM",40%
same,residual activity,"IGF1R (human); compound 1.0 µM, ATP 200 µM",37%
same,residual activity,"IGF1R (human); compound 10.0 µM, ATP 45 µM",20%
same,residual activity,"IGF1R (human); compound 10.0 µM, ATP 200 µM",26%
same,residual activity,SYK (human); compound 1.0 µM,49%
same,residual activity,SYK (human); compound 10.0 µM,60%
same,residual activity,PIM2 (human); compound 1.0 µM,68%
same,residual activity,PIM2 (human); compound 10.0 µM,38%
same,residual activity,MKNK2 (human); compound 1.0 µM,62%
same,residual activity,MKNK2 (human); compound 10.0 µM,18%
same,residual activity,PRKCA (human); compound 1.0 µM,93%
same,residual activity,PRKCA (human); compound 10.0 µM,86%
same,residual activity,CDK5 CDK5R1 p25 (human); compound 1.0 µM,3%
same,residual activity,CDK5 CDK5R1 p25 (human); compound 10.0 µM,2%
